In patent US20250073184A1, “CANNABIGEROQUINONE COMPOUNDS, COMPOSITIONS INCLUDING SUCH COMPOUNDS, AND USES OF SUCH COMPOUNDS AND COMPOSITIONS” (Juva Life, Inc., priority 2021, published 2025):

Experiments:
[1] = target: T1, cannabinoid receptor 1 (CNR1) (Homo sapiens, UniProt P21554); test: CB1 receptor agonist assay (cAMP Hunter eXpress, CNR1 CHO-K1 cells); type: cell-based; conditions: agonist mode, Forskolin-stimulated cAMP
T1 construct: host or cells: CHO-K1
Method: (§1) The assays were performed in cAMP Hunter eXpress cells engineered to overexpress naturally Gi/Go-coupled wildtype cannabinoid receptor 1 (CNR1) or cannabinoid receptor 2 (CNR2) in CHO-K1 cell type. In these cells, CB1 and/or […] agonists inhibit production of intracellular cAMP in response to stimulation with Forskolin. cAMP levels are determined using luminogenic detection reagents provided with the Hunter eXpress cAMP detection kit.
(§2) • Assay ready CNR1 CHO-K1 cells were obtained from Eurofins/Discover X, cat #95-0071E2 • Assay ready CNR2 CHO-K1 cells were obtained from Eurofins/Discover X, cat #95-0183E2 • Hunter eXpress cAMP detection kit was also from Discover X. The kit includes all cAMP detection reagents, Forskolin, complete cell plating medium and cell assay buffer.
The Assay-Ready CNR1 CHO-K1 or CNR2 CHO-K1 cells were thawed and re-suspended in pre-warmed Assay Complete plating medium and inoculated into 96 well plate at a density of 30,000 cells in 100 μL. The plates with cells were incubated for 24 h at 37° C. in 5% CO2. […] The cells were stimulated with the Forskolin/compound buffer for 30 min. […] The plate was read on Biotek Synergy Neo2 reader in luminescent mode. […] Relative luminescence units (RLUs) were plotted against compound concentration to determine apparent EC50 values of the agonist compounds.

[2] = test system: PC3 prostate adenocarcenoma cell line; test: PC3 cell line toxicity (Cell titer Glo viability); type: cell-based; conditions: PC3, 72 h
Method: 90 nL DMSO is added to control wells. […] Luminescence was then recorded using Synergy Neo2Multi-mode Reader.
(§3) Culture medium were purchased from ATCC, USA.

[3] = test system: PANC-1 pancreatic carcinoma cell line; test: PANC-1 cell line toxicity (Cell titer Glo viability); conditions: PANC-1, 72 h
Method: The half maximal inhibition concentration (IC50) for each compound was determined by harvesting cells during the logarithmic growth period and then counting cell number using hemocytometer. The cell concentrations were adjusted to 5×10^4 cells/mL with respective culture medium. 30 μL of cell suspensions were added to three 384-well plates with the final cell density of 1.5×10^3 cells/well. Then, using a Biomek FX, test articles were serially diluted (10 mM top, 3× dilution intervals) along with a reference inhibitor (1 mM top, 3× dilution intervals) in acoustic grade Labcyte plate. Then, using an acoustic dispenser (Labcyte550), compounds were added as serially diluted to plate with cells: 90 nL of serially diluted compounds per well. 90 nL DMSO is added to control wells. Test plates were incubated for 72 h in the humidified incubator at 37° C. with 5% CO2. 25 μL of reconstituted Cell titer Glo reagent was added to each well. Each test plate was then incubated for 20 min at room temperature. Luminescence was then recorded using Synergy Neo2Multi-mode Reader.
In order to calculate intersect IC50, a dose-response curve was fitted using nonlinear regression model with a sigmoidal dose response.
The formula for calculating surviving rate is shown below, and the intersect IC50 was calculated according to the dose-response curve generated by the software:
as §3

[4] = target: T2, cannabinoid receptor 2 (CNR2) (Homo sapiens, UniProt P34972); test: CB2 receptor agonist assay (cAMP Hunter eXpress, CNR2 CHO-K1 cells); type: cell-based; conditions: agonist mode, Forskolin-stimulated cAMP, CNR2 CHO-K1 cells
T2 construct: host or cells: CHO-K1
Method: as §1, §2
The Assay-Ready CNR1 CHO-K1 or CNR2 CHO-K1 cells were thawed and re-suspended in pre-warmed Assay Complete plating medium and inoculated into 96 well plate at a density of 30,000 cells in 100 μL. The plates with cells were incubated for 24 h at 37° C. in 5% CO2. […] The cells were stimulated with the Forskolin/compound buffer for 30 min. After stimulation, 15 μL of cAMP antibody reagent and 60 μL of cAMP working detection solution were added to the cells and, the cells were incubated for 1 h at room temperature. After 1 h incubation, 60 μL of cAMP Solution A was added to the wells and the plate was incubated for 3 h at room temperature. The plate was read on Biotek Synergy Neo2 reader in luminescent mode. CB1 and CB2 agonists should reduce cAMP production in response to Forskilin. Relative luminescence units (RLUs) were plotted against compound concentration to determine apparent EC50 values of the agonist compounds.

T1 sequence (P21554 whole entry): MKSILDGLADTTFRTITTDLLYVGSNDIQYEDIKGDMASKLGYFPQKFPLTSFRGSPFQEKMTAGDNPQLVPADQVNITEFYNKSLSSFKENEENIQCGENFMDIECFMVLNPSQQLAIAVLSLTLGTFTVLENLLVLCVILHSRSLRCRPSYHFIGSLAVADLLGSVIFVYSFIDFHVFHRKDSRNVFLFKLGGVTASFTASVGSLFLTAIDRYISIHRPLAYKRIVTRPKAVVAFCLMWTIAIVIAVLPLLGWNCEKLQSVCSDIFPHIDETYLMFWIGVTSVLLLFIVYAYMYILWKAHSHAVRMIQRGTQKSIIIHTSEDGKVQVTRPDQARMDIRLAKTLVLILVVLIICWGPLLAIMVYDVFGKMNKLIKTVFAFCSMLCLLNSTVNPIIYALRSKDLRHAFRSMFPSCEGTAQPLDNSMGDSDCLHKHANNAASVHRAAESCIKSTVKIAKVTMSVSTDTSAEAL
T2 sequence (P34972 whole entry): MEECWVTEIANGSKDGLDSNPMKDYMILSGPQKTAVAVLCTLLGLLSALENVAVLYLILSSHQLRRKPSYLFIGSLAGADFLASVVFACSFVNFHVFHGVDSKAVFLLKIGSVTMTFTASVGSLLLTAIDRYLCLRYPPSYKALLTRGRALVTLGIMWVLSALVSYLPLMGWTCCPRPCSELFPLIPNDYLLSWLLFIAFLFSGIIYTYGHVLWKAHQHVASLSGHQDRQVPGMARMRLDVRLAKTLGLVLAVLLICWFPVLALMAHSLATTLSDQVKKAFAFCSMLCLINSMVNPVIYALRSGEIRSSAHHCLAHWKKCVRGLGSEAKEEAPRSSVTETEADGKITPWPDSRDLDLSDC

Substance: Cannabigerol Quinone [Formula VI]
- IC50 [1]: > 3000 nM
- EC50 [2]: > 30000 nM
- higher tolerance of PC3 cells to the compound than staurosporine [2]: more than 10,000 fold
- Cell Viability (%) ([2]; 0.00017 uM): 97.4%
- Cell Viability (%) ([2]; 0.00051 uM): 100.9%
- Cell Viability (%) ([2]; 0.0015 uM): 96.0%
- Cell Viability (%) ([2]; 0.0046 uM): 96.9%
- Cell Viability (%) ([2]; 0.014 uM): 96.5%
- Cell Viability (%) ([2]; 0.041 uM): 95.9%
- Cell Viability (%) ([2]; 0.12 uM): 96.0%
- Cell Viability (%) ([2]; 0.37 uM): 97.7%
- Cell Viability (%) ([2]; 1.1 uM): 94.0%
- Cell Viability (%) ([2]; 3.3 uM): 94.6%
- Cell Viability (%) ([2]; 10 uM): 91.2%
- Cell Viability (%) ([2]; 30 uM): 84.5%
- higher tolerance of PANG-1 cells to the compound than staurosporine [3]: more than 750 fold
- Cell Viability (%) ([3]; 0.00017 uM): 106.6%
- Cell Viability (%) ([3]; 0.00051 uM): 107.5%
- Cell Viability (%) ([3]; 0.0015 uM): 100.4%
- Cell Viability (%) ([3]; 0.0046 uM): 104.2%
- Cell Viability (%) ([3]; 0.014 uM): 100.2%
- Cell Viability (%) ([3]; 0.041 uM): 99.9%
- Cell Viability (%) ([3]; 0.12 uM): 99.2%
- Cell Viability (%) ([3]; 0.37 uM): 98.6%
- Cell Viability (%) ([3]; 1.1 uM): 102.6%
- Cell Viability (%) ([3]; 3.3 uM): 95.7%
- Cell Viability (%) ([3]; 10 uM): 99.4%
- Cell Viability (%) ([3]; 30 uM): 99.8%
- EC50 ([3]; read-out: EC50 (cell viability)): > 30000 nM
- IC50 [4]: 120 nM
